# Assays:
# Assay type in all cases: in vivo, human
# [1] = Pharmacokinetics of MR2 CX-8998 in fed versus fasted subjects; conditions: MR2 CX-8998, single dose 1×8 mg
# From the text: Subjects will be screened for study eligibility within 28 days before administration of the first dose of study drug. Subjects who meet the study eligibility criteria will be admitted to the clinical research unit in the afternoon of the day before administration of the first dose of study drug (Period 1/Day −1).
# [2] = tested on: patients with essential tremor; test: T-CALM: TETRAS activities of daily living subscale; conditions: for TETRAS-ADL Score change from baseline, Median (minimum, maximum): Day 15, post-hoc
# Experimental: The sum of the individual scores provides the overall score, ranging from 0 to 48. The complete TETRAS ADL Subscale is as follows.
# Analyses of the TETRAS-ADL was conducted using the same type of ANCOVA model as described for the TETRAS-PS, using two-sided tests at the alpha=0.05 level of significance (FIG. 2 and Table 2).
# Both sets of scores were statistically analyzed.
# [3] = tested on: patients with essential tremor; test: T-CALM: PK/PD, Cmin exposure vs change in TETRAS-PS (Hill equation); conditions: steady state, estimated
# From the text: Evaluation of the relationship between the Cmin exposure level of CX-8998 and response (E) as measured by change from baseline in TETRAS-PS using the Hill Equation: […]
# Pharmacodynamic variables (Response) evaluated included change from baseline in TETRAS performance subscale, TETRAS activities of daily living, TETRAS total score.
# [4] = Day 15, change from baseline, N = 39
# [5] = Day 28, change from baseline, N = 37
compound,measurement,setting,value
CC(C)c1ccc(CC(=O)N[C@H](C)c2ccc(OCC(F)(F)F)cn2)cc1 [CX-8998],effect of fed state on overall exposure as measured by AUC,[1],does not appear to significantly impact overall exposure
same,effect of fed vs fasted state on early absorption,[1],impacts early absorption
same,effect of fed vs fasted state on late absorption,[1],does not appear to significantly impact late absorption
same,"Subjects with improvement of at least 5 points by TETRAS-ADL score, number","[2]; Day 15, N 39",18
same,"TETRAS-ADL Score, subjects with 0 change, n (%)",[2]; [4],2 (5.1%)
same,"TETRAS-ADL Score, subjects with >0 to 1 point improvement, n (%)",[2]; [4],5 (12.8%)
same,"TETRAS-ADL Score, subjects with >0 to 1 point worsening, n (%)",[2]; [4],1 (2.6%)
same,"TETRAS-ADL Score, subjects with >1 to 2.5 point improvement, n (%)",[2]; [4],2 (5.1%)
same,"TETRAS-ADL Score, subjects with >1 to 2.5 point worsening, n (%)",[2]; [4],3 (7.7%)
same,"TETRAS-ADL Score, subjects with >2.5 to 5 point improvement, n (%)",[2]; [4],7 (17.9%)
same,"TETRAS-ADL Score, subjects with >2.5 to 5 point worsening, n (%)",[2]; [4],3 (7.7%)
same,"TETRAS-ADL Score, subjects with >5 to 10 point improvement, n (%)",[2]; [4],11 (28.2%)
same,"TETRAS-ADL Score, subjects with >5 to 10 point worsening, n (%)",[2]; [4],0
same,"TETRAS-ADL Score, subjects with >10 point improvement, n (%)",[2]; [4],5 (12.8%)
same,"TETRAS-ADL Score, subjects with >10 point worsening, n (%)",[2]; [4],0
same,"TETRAS-ADL Score change from baseline, Median (minimum, maximum)",[2]; patients Minimally Improved by CGI-I,"−2.0 (−11, 3)"
same,"TETRAS-ADL Score change from baseline, Median (minimum, maximum)",[2]; patients Minimally Improved by PGIC,"−4.0 (−13, 4)"
same,"Subjects with improvement of at least 5 points by TETRAS-ADL score, number","[2]; Day 28, N 37",11
same,"TETRAS-ADL Score, subjects with 0 change, n (%)",[2]; [5],5 (13.5%)
same,"TETRAS-ADL Score, subjects with >0 to 1 point improvement, n (%)",[2]; [5],2 (5.4%)
same,"TETRAS-ADL Score, subjects with >0 to 1 point worsening, n (%)",[2]; [5],3 (8.1%)
same,"TETRAS-ADL Score, subjects with >1 to 2.5 point improvement, n (%)",[2]; [5],3 (8.1%)
same,"TETRAS-ADL Score, subjects with >1 to 2.5 point worsening, n (%)",[2]; [5],3 (8.1%)
same,"TETRAS-ADL Score, subjects with >2.5 to 5 point improvement, n (%)",[2]; [5],7 (18.9%)
same,"TETRAS-ADL Score, subjects with >2.5 to 5 point worsening, n (%)",[2]; [5],3 (8.1%)
same,"TETRAS-ADL Score, subjects with >5 to 10 point improvement, n (%)",[2]; [5],6 (16.2)
same,"TETRAS-ADL Score, subjects with >5 to 10 point worsening, n (%)",[2]; [5],0
same,"TETRAS-ADL Score, subjects with >10 point improvement, n (%)",[2]; [5],5 (13.5%)
same,"TETRAS-ADL Score, subjects with >10 point worsening, n (%)",[2]; [5],0
same,"Emax, change from baseline in TETRAS-PS vs Cmin (Hill equation)",[3],approximately −4.1
